Experiments:
[1] = biological target: T1, IDUA (Homo sapiens, UniProt P35475); assay: IDUA enzymatic activity in patient-derived fibroblasts after rhIDUA with or without compound (4-MUI substrate); format: cell-based; set-up: Institute of Biotechnology and Biomedicine, Autonomous University of Barcelona (UAB), Bellaterra, Spain
T1 sequence (P35475 28-653): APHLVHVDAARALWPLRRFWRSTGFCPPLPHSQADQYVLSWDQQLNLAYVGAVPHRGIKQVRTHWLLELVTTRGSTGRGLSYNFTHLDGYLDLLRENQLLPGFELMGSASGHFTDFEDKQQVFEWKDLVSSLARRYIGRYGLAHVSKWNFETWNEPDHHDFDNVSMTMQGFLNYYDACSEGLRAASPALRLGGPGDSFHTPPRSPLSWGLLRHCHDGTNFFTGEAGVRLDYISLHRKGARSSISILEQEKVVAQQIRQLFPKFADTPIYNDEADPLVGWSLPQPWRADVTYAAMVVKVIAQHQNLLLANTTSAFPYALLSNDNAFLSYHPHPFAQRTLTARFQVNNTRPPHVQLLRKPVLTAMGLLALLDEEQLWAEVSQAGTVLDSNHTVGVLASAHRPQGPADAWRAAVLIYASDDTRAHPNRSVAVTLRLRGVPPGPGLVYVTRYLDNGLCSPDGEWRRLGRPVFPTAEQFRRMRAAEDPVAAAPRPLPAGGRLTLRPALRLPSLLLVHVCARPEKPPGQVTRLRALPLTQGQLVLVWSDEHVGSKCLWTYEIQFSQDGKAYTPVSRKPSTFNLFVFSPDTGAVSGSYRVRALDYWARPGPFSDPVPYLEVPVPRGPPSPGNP
Method: Fibroblasts derived from Hurler (GM00798) and Hurler/Scheie patients (GM02845, GM00512, GM01898, GM00963) were purchased from Coriell (Camden, NJ). Fibroblasts were cultured in Dulbecco’s modified Eagle’s medium (DMEM, Gibco) supplemented with 10% inactivated fetal bovine serum (FBS, Gibco) and 1% penicillin-streptomycin (Thermo Fisher Scientific, Waltham, MA, USA) (growth medium) at 37 °C under 5% CO2. The effect of the protein and/or compound in enhancing IDUA enzymatic activity was evaluated as follows: The specified patient-derived fibroblasts were seeded at 4x10^4 cells per well in 12-well cell culture plates in growth medium. Subsequently, cells were incubated with indicated dose of rhIDUA (obtained from the Institute of Biotechnology and Biomedicine in the UAB, Bellaterra, Spain) in the absence or presence of the compound #18 (GT-01803) for the specified incubation times at 50 μM. After incubation, cells were washed with PBS and detached using Trypsin-EDTA solution (Sigma Aldrich, St. Louis, MO, USA) to prepare cell pellets. The pellets were stored at -80 °C until activity assays were performed. IDUA activity in cell lysates was measured using 4-methylumbelliferyl IDUA substrate (4-MUI, Glycosynth Ltd., #44076, Warrington, UK). Briefly, lysates were resuspended in 120 μL of 0.9% NaCl containing 0.01% Triton X-100 lysis buffer to promote membrane disruption. Next, the cell suspension was sonicated and centrifuged to pellet insoluble materials. Then, 25 μL of lysates were mixed with 25 μL of 200 μM 4-MUI substrate solution in 0.4 M sodium formate, pH 3.5, 0.2% Triton X-100 buffer and incubated for 60 mins at 37 °C. The reaction was stopped by adding 200 μL of 0.5 M Glycine/0.3 M NaOH buffer, pH 10. The liberated 4-methylumbelliferone (4-MU) was measured on a Glomax® Discover microplate reader with excitation at 340 nm and emission at 460 nm. Protein quantification was determined using Pierce BCA Protein Assay Kit (Thermo Fisher Scientific, Waltham, MA, USA). Measurements were interpolated in a 4-MU standard curve and normalised by protein quantity.
For Fig 6A, rhIDUA concentrations of 0.187, 0.375 and 1.25 nM were tested in GM02845 fibroblasts over a 96-hour period, both in the presence and absence of the compound #18 (GT-01803) at 50 μM. In Fig 6B, 1.25 nM of rhIDUA was evaluated in GM02845, GM00798, GM00512, and GM00963 fibroblasts for 96h, with and without the compound #18 (GT-01803) at 50 μM. In Fig 6C, a concentration of 1.25 nM of the protein was applied to fibroblasts for 4, 8, 24 and 96h, with and without the compound #18 (GT-01803) at 50 μM.

[2] = Plasma pharmacokinetics of GT-01803 in mice; format: in vivo, male C57BL/6 mice; conditions: male, C57BL/6, mouse
Method: The in vivo pharmacokinetic (PK) profile of GT-01803 in plasma was assessed in male C57BL/6 mice after single intravenous (i.v.) and oral gavage administration (p.o.) of 2 mg/kg and 10 mg/Kg, respectively. The plasma PK evaluation was performed by Sai Life Sciences Limited (Pune, India) in accordance with guidelines of the Institutional Animal Ethics Committee (IAEC). Eighteen male mice were divided into Group 1 (i.v.: 2 mg/kg) or Group 2 (p.o.: 10 mg/kg). Animals in Group 1 and Group 2 were administered intravenously and orally with GT-01803 solution formulation in 5% N-methyl-2-pyrrolidone (NMP), 5% Solutol HS-15 and 90% saline solution at 2 and 10 mg/kg doses, respectively.
Blood samples were collected under light isoflurane anesthesia from retro-orbital plexus such that samples were obtained at 0.08, 0.25, 0.5, 1, 2, 3, 4, 6 and 8 hr. (i.v.) and Pre-dose, 0.25, 0.5, 1, 2, 3, 4, 6 and 8 hr (p.o.). At each time point, blood samples were collected from three mice. Immediately after collection, plasma was harvested by centrifugation and stored at -70 °C until analysis. All samples were processed by protein precipitation using acetonitrile and analyzed with an LC/MS/MS method suitable for the purpose (LLOQ = 1.00 ng/mL).
PK parameters were calculated using the non-compartmental analysis tool of Phoenix WinNonlin (Version 7.0). Maximum concentration (Cmax) and time to reach maximum concentration (Tmax) were the observed values. The areas under the concentration time curve (AUClast and AUCinf) […] were calculated by linear trapezoidal rule. The terminal elimination rate constant, ke, was determined by regression analysis of the linear terminal portion of the log plasma concentration-time curve. The terminal half-life (T1/2) was estimated as follows 0.693/ke; CLi.v. = Dose/AUCinf; Vss = MRT X CLi.v.; %F = [(Mean AUCp.o. × Dosei.v.) / (Mean AUCi.v. × Dosep.o.)] × 100.

[3] = rhIDUA 1.25 nM + GT-01803 50 μM, GM02845 fibroblasts (Fig 6C)

In the case of `CCN(CC(=O)Nc1c(Cl)cccc1Cl)Cc1nc2ccsc2c(=O)[nH]1` [GT-01803], the “IDUA cell activity compared with rhIDUA alone” value ([1]; co-administration of rhIDUA (0.187, 0.375, 1.25 nM) with 50 μM GT-01803, GM02845, 96 h, p ≤ 0.0001) is reported as “marked dose-dependent increase”, the “mean IDUA cell activity at 96h” value [1, 3] is reported as 104.3 nmol/h/mg and the “mean difference in IDUA cell activity at 96h, rhIDUA + compound vs rhIDUA alone” value [1, 3] is reported as 28.65 ± 3.106 nmol/h/mg. For the same compound, the AUC(0-inf) ([2]; iv, 2 mg/kg) was 13600 ng·h/mL, the AUC(0-t) ([2]; iv, 2 mg/kg) was 13300 ng·h/mL and the clearance ([2]; iv, 2 mg/kg) was 2.45 mL/min/kg. It also gave a half-life ([2]; iv, 2 mg/kg) of 3.54 h, a C0 ([2]; iv, 2 mg/kg, read-out: C0 (back extrapolated conc.)) of 33500 ng/mL and a Vd ([2]; iv, 2 mg/kg, read-out: Vss) of 0.13 L/kg. It also gave a bioavailability ([2]; oral, p.o. 10 mg/kg vs i.v. 2 mg/kg, AUClast considered, read-out: %F (oral bioavailability)) of 50%, an AUC(0-inf) ([2]; po, 10 mg/kg) of 33200 ng·h/mL and an AUC(0-t) ([2]; po, 10 mg/kg) of 33000 ng·h/mL. The Cmax ([2]; po, 10 mg/kg) was 33900 ng/mL and the Tmax ([2]; po, 10 mg/kg) was 0.25 h.
